The source of these data is US12133843B2, “IL-8 inhibitors for use in the treatment and/or prevention of bacterial secondary infections” (priority 2017, dated 2024).

For series [1], the system named is H1N1 influenza virus plus cigarette smoke. In words: Lung inflammation exacerbation model combining H1N1 influenza infection and cigarette smoke exposure (Cs-H1N1). The series is classed as in vivo, female C57BL/6 mice. Conditions: survival assay, once a day for 7 days from day of infection. The source says:
Viral infections are among the principal causes of COPD exacerbations (Mackay, A. J. & Hurst, J. R. Immunol Allergy Clin North Am 33, 95-115; 2013). For that reason, the inventors combined influenza infection and cigarette smoke exposure (Cs) in mice in order to model COPD exacerbation. The inventors essentially exposed female C57BL/6 mice to Cs for 12 days and infect them with 1000 pfu of H1N1 influenza virus at day 7 after starting daily Cs exposure (Cs-H1N1).

The test system of series [2] is Influenza A/WSN/33 H1N1 (IAV). In words: Single IAV infection in mice, treatment with CXCR1/CXCR2 antagonist. The series is classed as in vivo, C57BL/6J mice. The conditions noted are these: 10^4 PFU IAV.
The test system of series [3] is Streptococcus pneumoniae (ATCC 6303 serotype 3). In words: Single pneumococcal infection (pneumonia) in mice. Conditions: S. pneumoniae i.n. The series is classed as in vivo, C57BL/6J mice.
Series [4] has as its system S. pneumoniae secondary infection after IAV. The series is classed as in vivo, C57BL/6J mice.
In series [5] the test system is neutrophil influx. Conditions: this dose and schedule (10 mg/kg oral gavage); cited from earlier work.
For series [6] the following is noted: in vivo; cited from earlier work.
[7] abbreviates: 10 mg/kg twice a day for 5 days, day 5, BAL.
[8] abbreviates: 10 mg/kg twice a day for 5 days, day 5, BAL fluid ELISA.
Setting [9] is: 10 mg/kg at 6, 12, 24, 36 h, 48 h after infection, BALF.

`C[C@@H](C(=O)NS(C)(=O)=O)c1ccc(OS(=O)(=O)C(F)(F)F)cc1` [DF2156A]: the Mortality rate entry in series [1] (Cs-H1N1 mice, LD50 of influenza virus) is on record as “slightly reduced”. Further, the “Mice mortality, delay (survival curve vs Cs-H1N1 group)” value in series [1] is “significantly delayed”.
Take `C[C@@H](C(N)=O)c1ccc(OS(=O)(=O)C(F)(F)F)cc1` [DF2162, R(−)-2-[(4′-trifluoromethanesulfonyloxy)phenyl]propionamide]: the “Weight loss (morbidity)” value in series [2] (10 mg/kg oral gavage twice a day, day 0 to 5, vs vehicle) was “reduction of weight loss”. Besides, the “Histological analysis of lungs: bronchiolar and vascular inflammation” value in series [2] (10 mg/kg twice a day for 5 days, H&E slides) was “reduced bronchiolar and vascular inflammation”. Also, the “Levels of MPO in the lungs” value in series [2] (10 mg/kg twice a day for 5 days, day 5) is recorded as “did not reduce”. In series [2] (setting [7]), the “Neutrophils in the airways” value is recorded as “decreased” and the “Number of leukocytes recruited into the airways” value was “decreased”. Further, in series [2] (setting [8]), the “Levels of CXCL1 in the airways” value is “decreased”, the “Levels of IL-6 in the airways” value is given as “did not reduce” and the “Levels of TNF-α in the airways” value is reported as “decreased”. Moreover, in series [2] (10 mg/kg twice a day for 5 days, day 5, plaque assay, vs vehicle), the “Viral loads in the lungs” value is “reduced”. For the same molecule, in series [2] (10 mg/kg twice a day for 5 days, day 5, score max 18 points), the “Lung injury (histopathological score)” value is recorded as “reduced the lung injury”. Besides, in series [3] (10 mg/kg at 6, 12, 24, 36 h, 48 h, score max 18 points), the “Lung injury (overall pathological score)” value is “reduced the lung injury”. For the same molecule, in series [3] (10 mg/kg at 6, 12, 24, 36 h, 48 h after infection), the “Neutrophils in the lungs” value was “reduction in neutrophils”. Further, in series [3] (setting [9]), the “Neutrophils recruited into the airways” value is recorded as “decreased” and the “Number of leukocytes recruited into the airways” value is given as “decreased number of leukocytes”. For the same molecule, the Lethality entry in series [3] (10 mg/kg twice a day for 2 days, followed 10 days) was “protected mice from lethality”. Also, the “Levels of IL-10 in BAL fluid” value in series [4] (mouse, in vivo) was “decreased”. In addition, in series [4] (mouse, in vivo, 10 mg/kg), the “Mortality after secondary infection” value is given as “delayed mortality” and the Weight loss result is given as “reduced the weight loss”. In addition, in series [4] (treated days 3-6 of IAV, […]), the “Histopathological lung damage (overall score of lung injury)” value is listed as “decreased such histopathological lung damage”, the “Levels of CXCL-1 in BAL fluid” value was “prevented the increase”, the “Levels of IL-6 in BAL fluid” value is “prevented the increase” and the “Levels of IL-12 in BAL fluid” value was “prevented the increase”. Also, in series [4] (treated days 3-6 of IAV, […]), the “Levels of TNF-α in BAL fluid” value is “prevented the increase”, the “Number of bacteria in the blood” value was “reduction in number of bacteria” and the “Recruitment of neutrophils into the lungs (MPO assay)” value was “decreased recruitment of neutrophils”. For the same molecule, the “Recruitment of neutrophils into the airways” value in series [4] (treated days 3-6 of IAV, […], BAL) is “decreased recruitment of neutrophils”. For the same molecule, in series [4] (treated days 3-6 of IAV, […], Bradford assay), the “Levels of protein in BALF (protein leakage)” value is on record as “decreased the levels of protein in BALF”. Moreover, the “Neutrophil influx in other models” value in series [5] is reported as “significant inhibition of neutrophil influx”. In series [6], the Half-life result is “long half-life”.
On to `C[N+]1(C)[C@@H]2C[C@@H](OC(=O)C(O)(c3cccs3)c3cccs3)C[C@H]1[C@@H]1O[C@@H]12` [Tiotropium, reference compound], for which the “Mice mortality, delay (survival curve vs Cs-H1N1 group)” value in series [1] was “no significant differences”.
